A word on the IC50: it is the concentration that inhibits the measured activity by half.

SMILES strings stand for the structures. Read-outs that look alike come from different tables or passages of the source.

Data on six compounds can be found in publication PMC6644236, “Cytotoxicity of Crude Extract and Isolated Constituents of the Dichrostachys cinerea Bark towards Multifactorial Drug-Resistant Cancer Cells” (Evidence-based Complementary and Alternative Medicine : eCAM, 2019).

Data set [1] concerns CCRF-CEM leukemia cells. Nature of the data set: Resazurin reduction cytotoxicity assay. The data set is classed as cell-based. As to conditions: 72 h incubation. A general note: Resazurin is reduced to fluorescent resorufin, in cell work by metabolically active cells.
Description: (§2) The Infinite M2000 Pro™ plate reader (Tecan, Crailsheim, Germany) with excitation wavelength of 544 nm and an emission wavelength of 590 nm was used to read the fluorescence after 72 h incubation. IC50 values earlier defined [13] were calculated from a calibration curve by linear regression using Microsoft Excel [24]. The degree of resistance (D.R.) was determined as the IC50 value of the resistant cell line versus that of its sensitive congeners; meanwhile, the selectivity index (S.I.) was the IC50 value in normal AML12 hepatocytes versus that in HepG2 hepatocarcinoma.
Data set [2] concerns CEM/ADR5000 cells (multidrug-resistant P-glycoprotein-overexpressing subline). In words: Resazurin reduction cytotoxicity assay. The format is cell-based. To be noted: for IC50: CEM/ADR5000, 72 h incubation; for Degree of resistance: IC50 in CEM/ADR5000 divided by IC50 in CCRF-CEM.
Excerpt: (§3) Drug-sensitive and drug-resistant cancer cell lines of previously reported origin were used in this study. These included drug-sensitive CCRF-CEM leukemia cells and its multidrug-resistant P-glycoprotein-overexpressing subline CEM/ADR5000 cells [14–16], MDA-MB-231-pcDNA breast cancer cells and their resistant subline MDA-MB-231-BCRP clone 23 cells [17], HCT116 p53^+/+colon cancer cells and their knockout clone HCT116 p53^−/− cells, and U87.MG glioblastoma cells and their resistant subline U87.MGΔEGFR cells [18, 19]. Normal AML12 hepatocytes were used and compared with HepG2 hepatocarcinoma cells [18, 19].
as §2
Data set [3] deals with MDA-MB-231-pcDNA breast cancer cells. Nature of the data set: Resazurin reduction cytotoxicity assay. The data set is classed as cell-based. As to conditions: 72 h incubation.
Data set [4] concerns HCT116 p53+/+ colon cancer cells. In words: Resazurin reduction cytotoxicity assay. The data set is classed as cell-based.
Data set [5] has as its system HCT116 p53-/- cells. In words: Resazurin reduction cytotoxicity assay. The format is cell-based. To be noted: for IC50: Homo sapiens, HCT-116, HCT116(p53-/-), 72 h incubation; for Degree of resistance: IC50 in HCT116 (p53-/-) divided by IC50 in HCT116 (p53+/+).
Excerpt: as §3, §2
The subject of data set [6] is U87.MG glioblastoma cells. Nature of the data set: Resazurin reduction cytotoxicity assay. The format is cell-based. To be noted: Homo sapiens, U-87 MG; U87MG, 72 h incubation.
In data set [7] the test system is U87.MGΔEGFR cells. Nature of the data set: Resazurin reduction cytotoxicity assay. The format is cell-based. As to conditions: for Degree of resistance: IC50 in U87MG.ΔEGFR divided by IC50 in U87MG; for IC50: U87MG.ΔEGFR, 72 h incubation.
Excerpt: as §3, §2
The test system of data set [8] is HepG2 hepatocarcinoma cells. Nature of the data set: Resazurin reduction cytotoxicity assay. The format is cell-based. To be noted: Homo sapiens; HepG2, 72 h incubation.
Description: as §2
In data set [9] the test system is Normal AML12 hepatocytes. In words: Resazurin reduction cytotoxicity assay. As to conditions: for IC50: Mus musculus, normal AML12 hepatocytes, 72 h incubation; for Selectivity index: IC50 in normal AML12 hepatocytes divided by IC50 in HepG2. The data set is classed as cell-based.
Excerpt: as §3, §2
Data set [10] concerns 9 tested cancer cell lines. Nature of the data set: Resazurin reduction cytotoxicity assay, whole panel. The format is cell-based. As to conditions: for IC50: all tested cancer cell lines, 72 h incubation, read-out: IC50 values over the tested cancer cell lines.
Excerpt: These included drug-sensitive CCRF-CEM leukemia cells and its multidrug-resistant P-glycoprotein-overexpressing subline CEM/ADR5000 cells [14–16], MDA-MB-231-pcDNA breast cancer cells and their resistant subline MDA-MB-231-BCRP clone 23 cells [17], HCT116 p53^+/+colon cancer cells and their knockout clone HCT116 p53^−/− cells, and U87.MG glioblastoma cells and their resistant subline U87.MGΔEGFR cells [18, 19]. Normal AML12 hepatocytes were used and compared with HepG2 hepatocarcinoma cells [18, 19].
as §2
Data set [11] relates to MDA-MB-231-BCRP clone 23 cells. Nature of the data set: Resazurin reduction cytotoxicity assay. To be noted: for Degree of resistance: IC50 in MDA-MB-231-BCRP divided by IC50 in MDA-MB-231-pcDNA; for IC50: MDA-MB-231/BCRP, 72 h.
Excerpt: as §3, §2
For data set [12], the system named is CCRF-CEM cells. In words: Mitochondrial membrane potential (MMP), JC-1 staining. The data set is classed as cell-based. As to conditions: 24 h. The method, then: The mitochondrial membrane potential (MMP) of CCRF-CEM cells was analyzed after 24 h treatment with DCB, compound 1, or valinomycin (mitochondrial gradient dissipation substance or positive control). The 5,5′,6,6′-tetrachloro-1,1′,3,3′-tetraethylbenzimidazolyl carbocyanine iodide (JC-1; Biomol, Hamburg, Germany) staining was used to measure the MMP similarly as previously reported.

Data set [13] relates to CCRF-CEM cells. In words: Cell cycle analysis by flow cytometry (PI). The format is cell-based. As to conditions: 24 h. As for the experimental part:
Aliquots of 1×10^6 CCRF-CEM cells were treated with the studied samples (DCB and compound 1), the reference drug (doxorubicin), or the solvent control (DMSO) at various concentrations. […] The BD Accuri C6 Flow Cytometer (BD Biosciences, Heidelberg, Germany) was used to measure the propidium iodide (PI) fluorescence of individual nuclei. Assays were repeated at least three times and in triplicate.

In data set [14] the test system is caspases 3/7. In words: Caspase-Glo 3/7 assay. To be noted: CCRF-CEM, 6 h, optimal effects at 8.8 μM. The format is cell-based. The method, then: (§1) After 6 h treatment of CCRF-CEM cells with DCB and triterpenoid 1 for 6 h, caspases activities were evaluated with Caspase-Glo 3/7, 8, and 9 assay kits (Promega, Mannheim, Germany) similarly as previously reported.

Data set [15] relates to caspase 8. Nature of the data set: Caspase-Glo 8 assay. The data set is classed as cell-based. As to conditions: CCRF-CEM, 6 h, optimal effects at 8.8 μM. The method, then:
as §1

Data set [16] concerns caspase 9. Nature of the data set: Caspase-Glo 9 assay. As to conditions: CCRF-CEM, 6 h, optimal effects at 8.8 μM. The format is cell-based. The method, then:
as §1

The subject of data set [17] is CCRF-CEM cells. In words: ROS production, H2DCFH-DA. The format is cell-based. As to conditions: 24 h, 2 × IC50 (11.38 μg/mL crude extract; 17.60 μM compound 1). As for the experimental part: The measurement of ROS production using 2′,7′-dichlorodihydrofluorescein diacetate (H2DCFH-DA) (Sigma-Aldrich) was done in CCRF-CEM cells were treated with DCB, compound 1, a solvent control (DMSO), or a positive control, hydrogen peroxide (H2O2) for 24 h, in similar experimental conditions as documented earlier.

Data set [18] deals with HEK293 cells. Details: method as in PMID 29867487, PMID 11734332. To be noted: lowest of the reported range, ref [34], [36]; cited from earlier work.
The test system of data set [19] is CCRF-CEM cells. Details: method as in PMID 29867487, PMID 11734332. As to conditions: highest of the reported range, ref [34], [36]; cited from earlier work.
The test system of data set [20] is normal PBL peripheral blood lymphoblast. Details: method as in PMID 11734332. As to conditions: ref [36]; cited from earlier work.
In data set [21] the test system is CEM/ADR5000 leukemia cells. Details: method as in PMID 29867487. To be noted: CEM/ADR5000 compared to CCRF-CEM; ref [34]; cited from earlier work.
Data set [22] deals with CCRF-CEM cells. Nature of the data set: Annexin V/PI staining, apoptosis by flow cytometry. To be noted: 24 h, 2 × IC50. On the technique in general: Flow cytometry measures light scatter and fluorescence of single cells or particles in a stream.
Description: The experimental conditions were similar to those earlier reported (24 h incubation; humidified 5% CO2 atmosphere; 37°C) [13]. The BD Accuri C6 Flow Cytometer was then used to analyze apoptosis using fluorescein isothiocyanate (FITC)-conjugated annexin V/PI assay kit (eBioscience™ Annexin V; Invitrogen, San Diego, USA) similarly as reported earlier [13, 22, 23]; early apoptosis for cells stained with only annexin V; late apoptosis or in a necrotic stage for cells stained with both annexin V and propidium iodide [13, 25, 26].
[23] abbreviates: Homo sapiens, HCT-116, 72 h, 72 h incubation.

Turning to `O=c1cc(-c2ccc(O)cc2)oc2cc(O)ccc12` [Compound 3, 7-hydroxy-2-(4-hydroxyphenyl)-4H-chromen-4-one], the IC50 in data set [1] (Homo sapiens) was 31.2 ± 0.98 µM; in data set [2] (Homo sapiens), 124 ± 20.2 µM; in data set [3], 75.5 ± 5.16 µM; in data set [4] (Homo sapiens, HCT-116, 72 h incubation), over 100 µM; in [5], 66.3 ± 5.67 µM; in data set [6] it was 61.3 ± 5.87 µM. The IC50 in [7] was 53.8 ± 6.1 µM; in data set [8] it was 48.6 ± 7.09 µM; in [9], over 100 µM; in [10], over 10 µM; in data set [11], 80 ± 1.61 µM. Besides, the Degree of resistance is on record as 3.98 in data set [2], under 0.66 in [5], 0.88 in data set [7] and 1.06 in data set [11].
As for `CC(C)[C@@H]1NC(=O)[C@H](C)OC(=O)[C@@H](C(C)C)NC(=O)[C@@H](C(C)C)OC(=O)[C@H](C(C)C)NC(=O)[C@H](C)OC(=O)[C@@H](C(C)C)NC(=O)[C@@H](C(C)C)OC(=O)[C@H](C(C)C)NC(=O)[C@H](C)OC(=O)[C@@H](C(C)C)NC(=O)[C@@H](C(C)C)OC1=O` [Valinomycin, valinomycin, reference compound], in [12] (10 μM), the Q1 intact cells stood at 54.1%, the “Q2 loss of MMP” value was 45.9%, the “Q3 ruptured cell membrane” value is recorded as 0.00% and the “Q4 ruptured cell membrane” value came out at 0.00%.
Turning to `COc1cccc2c1C(=O)c1c(O)c3c(c(O)c1C2=O)C[C@@](O)(C(=O)CO)C[C@@H]3O[C@H]1C[C@H](N)[C@H](O)[C@H](C)O1` [Doxorubicin, doxorubicin, reference compound], the IC50 in data set [1] (Homo sapiens) turned out to be 0.02 µM; in [3], 0.13 ± 0.01 µM; in [5], 1.78 ± 0.08 µM; in data set [6], 0.26 ± 0.03 µM; in [7], 0.98 ± 0.07 µM; in data set [8], 4.56 ± 0.48 µM. The IC50 in data set [9] worked out at 52.9 ± 4.09 µM; in data set [11], 0.79 ± 0.08 µM. Further, the Degree of resistance was 6,683.00 in data set [2], 3.73 in [5], 3.79 in [7] and 6.14 in data set [11]. Moreover, the “Cell cycle arrest (phase)” value in [13] is “between S and G2/M”.
Regarding `CCCCCCCCCCCCCCCCCCCCCCCCCC(=O)OCC(O)CO` (stereo not shown) [Compound 2, glyceryl-1-hexacosanoate], the IC50 in [1] (Homo sapiens), in data set [2] (Homo sapiens), in data set [3], in data set [4] (setting [23]), in data set [5] and in [6] was over 100 µM in each case. Moreover, the IC50 in [7], in data set [8], in data set [9], in data set [10] (72 h) and in data set [11] was over 100 µM in each case.
For `C=C(C)[C@@H]1CC[C@]2(C(=O)O)CC[C@]3(C)[C@H](CC[C@@H]4[C@@]5(C)CC[C@H](O)C(C)(C)[C@@H]5CC[C@]43C)[C@@H]12` [Compound 1, betulinic acid], the IC50 in data set [1] is 8.8 ± 0.35 µM; in data set [1] (Homo sapiens, 72 h) it was under 10 µM; in data set [2], 7.65 ± 1.46 µM; in data set [2] (Homo sapiens, ADR5000, 72 h), under 10 µM; in data set [3] it was 38.8 ± 0.94 µM; in data set [4] (setting [23]) it was 31.5 ± 0.49 µM. Further, the 50% inhibitory concentration (IC50) in [5] was 17.1 ± 0.7 µM; in data set [6] it was 24.9 ± 0.33 µM; in data set [7] it was 13.9 ± 1.06 µM; in data set [8], 44.2 ± 3.15 µM; in [9] it was over 93.9 µM; in data set [10] (72 h) it was under 50 µM. For the same compound, the IC50 is 15.1 µM in [18], 29.4 µM in [19] and 24.9 ± 1.2 µM in data set [11]. Besides, the Degree of resistance turned out to be 0.87 in [2], 0.54 in [5], 0.56 in [7] and 0.64 in [11]. This compound came in with a Selectivity index in data set [9] of over 2.13. The “Degree of resistance (D.R.), all resistant cell lines” value in data set [10] (all resistant cell lines compared to their sensitive counterparts) was “below 1”. The “Cell percentage Sub-G0/G1” value in data set [13] (1/4 × IC50) was determined as 15.30%; in [13] (2 × IC50) it was 48.40%. Further, the “Increase in the activity of caspases 3/7” value in data set [14] came to 3.19 fold. Besides, the “Increase in the activity of caspase 8” value in data set [15] is 2.91 fold. In [16], the “Increase in the activity of caspase 9” value was found to be 2.37 fold. The Q1 intact cells in data set [12] (1/2 × IC50) stood at 83.0%; in data set [12] (1/4 × IC50), 88.0%; in data set [12] (2 × IC50) it was 42.5%; in [12] (IC50) it was 51.8%. The “Q2 loss of MMP” value is on record as 1.28% in data set [12] (1/2 × IC50), 1.43% in [12] (1/4 × IC50), 57.5% in [12] (2 × IC50) and 48.2% in data set [12] (IC50). Besides, the “Q3 ruptured cell membrane” value worked out at 0.291% in data set [12] (1/2 × IC50), 0.057% in data set [12] (1/4 × IC50), 0.00% in data set [12] (2 × IC50) and 0.00% in [12] (IC50). In addition, the “Q4 ruptured cell membrane” value was determined as 15.4% in [12] (1/2 × IC50), 10.6% in data set [12] (1/4 × IC50), 0.00% in data set [12] (2 × IC50) and 0.00% in data set [12] (IC50). Further, the “ROS production, percentage” value in [17] came to 53.30%. Besides, the “Cytotoxicity towards normal cells” value in data set [20] is reported as “low cytotoxicity”. Also, the “Sensitivity of resistant cells compared to sensitive congener” value in data set [21] is on record as “hypersensitivity”. In addition, the “Q9-LR early apoptotic cells annexin (+)/PI (-)” value in data set [22] is reported as 51.0%. In [22], the “Q9-UL annexin V (-)/PI (+) cells (necrosis)” value turned out to be 5.1%.
For the compound `O=c1cc(-c2ccc(O)cc2)oc2ccc(O)cc12` [Compound 4, 6-hydroxy-2-(4-hydroxyphenyl)-4H-chromen-4-one], the IC50 in data set [1] (Homo sapiens) came out at 18.9 ± 1.54 µM; in data set [2] (Homo sapiens), 38.8 ± 2.13 µM; in data set [3], 45.8 ± 4.76 µM; in data set [4] (72 h incubation) it was 48.9 ± 5.35 µM; in data set [4] (setting [23]) it was 88.9 µM; in data set [5] it was 48.6 ± 3.82 µM. Also, the IC50 came out at 43.9 ± 8.19 µM in [6]; 44.6 ± 2.56 µM in data set [7]; 34 ± 2.95 µM in data set [8]; 53.9 ± 11.2 µM in data set [9]; 40.5 ± 3.9 µM in [11]. For the same compound, the Degree of resistance in data set [2] stood at 2.05; in data set [5] it was 1.00; in [7], 1.02; in [11] it was 0.88. The compound also had a Selectivity index in [9] of 1.59.
